# Test results from ChEMBL document CHEMBL1143413, “Synergistic effect of posaconazole and caspofungin against clinical zygomycetes” (Antimicrob Agents Chemother, 2007).
# Columns and labels:
# Rhizopus [1] = experiment: Antifungal activity against Rhizopus strain 0 zygomycota by conventional morphological method; format: functional
# Rhizopus [2] = experiment: Antifungal activity against Rhizopus strain 3 zygomycota by conventional morphological method; format: functional
# Rhizopus [3] = experiment: Antifungal activity against Rhizopus strain 8 zygomycota by conventional morphological method; format: functional
# Absidia [4] = experiment: Antifungal activity against Absidia strain 11 zygomycota by conventional morphological method; format: functional
# Absidia [5] = experiment: Antifungal activity against Absidia strain 17 zygomycota by conventional morphological method; format: functional
# Absidia [6] = experiment: Antifungal activity against Absidia strain 18 zygomycota by conventional morphological method; format: functional
# Cunninghamella = experiment: Antifungal activity against Cunninghamella sp. strain 12 zygomycota by conventional morphological method; format: functional
# Syncephalastrum = experiment: Antifungal activity against Snycephalastrum sp. strain 23 zygomycota by conventional morphological method; format: functional
# Rhizomucor = experiment: Antifungal activity against Rhizomucor sp. strain 25 zygomycota by conventional morphological method; format: functional
# Mucor [7] = experiment: Antifungal activity against Mucor strain 28 zygomycota by conventional morphological method; format: functional
# Mucor [8] = experiment: Antifungal activity against Mucor strain 39 zygomycota by conventional morphological method; format: functional
# Mucor [9] = experiment: Antifungal activity against Mucor strain 43 zygomycota by conventional morphological method; format: functional
# [10] = Toxicity in invasive zygomycosis diseased patient assessed as mortality; format: organism-based; conditions: human, in vivo; read-out: Activity
SMILES,MIC (Rhizopus [1]),MIC (Rhizopus [2]),MIC (Rhizopus [3]),MIC (Absidia [4]),MIC (Absidia [5]),MIC (Absidia [6]),MIC (Cunninghamella),MIC (Syncephalastrum),MIC (Rhizomucor),MIC (Mucor [7]),MIC (Mucor [8]),MIC (Mucor [9]),mortality [10]
CC[C@H](C)C[C@H](C)CCCCCCCCC(=O)N[C@H]1C[C@@H](O)[C@@H](NCCN)NC(=O)[C@@H]2[C@@H](O)CCN2C(=O)[C@H]([C@H](O)CCN)NC(=O)[C@H]([C@H](O)[C@@H](O)c2ccc(O)cc2)NC(=O)[C@@H]2C[C@@H](O)CN2C(=O)[C@H]([C@@H](C)O)NC1=O [CASPOFUNGIN],> 256 µg/mL,> 256 µg/mL,> 256 µg/mL,> 256 µg/mL,> 256 µg/mL,> 256 µg/mL,> 256 µg/mL,> 256 µg/mL,128 µg/mL,256 µg/mL,> 256 µg/mL,256 µg/mL,–
CC[C@@H]([C@H](C)O)n1ncn(-c2ccc(N3CCN(c4ccc(OC[C@@H]5CO[C@@](Cn6cncn6)(c6ccc(F)cc6F)C5)cc4)CC3)cc2)c1=O [POSACONAZOLE],1 µg/mL,1 µg/mL,1 µg/mL,1 µg/mL,1 µg/mL,0.5 µg/mL,1 µg/mL,1 µg/mL,2 µg/mL,0.5 µg/mL,1 µg/mL,0.5 µg/mL,30%
